Test results published in ChEMBL document CHEMBL1201862, “PubChem BioAssay data set” (2004).
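Test compounds were applied to cells in 96-well plates for 48 hours at 5 doses. The concentration for 50% growth inhibition is given as GI50.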 The source made the active and inactive calls. Rule as the data show it: active = GI50 up to about 1.1 µM and inactive = higher.

Tests used:
Experiment in all cases: inhibition of tumour cell growth, NCI panel, 48 h
[1] = tested on: 786-0
[2] = tested on: A498
[3] = tested on: A549
[4] = tested on: ACHN
[5] = tested on: BT-549
[6] = tested on: CAKI-1
[7] = tested on: CCRF-CEM
[8] = tested on: COLO 205
[9] = tested on: DU-145
[10] = tested on: EKVX
[11] = tested on: HCC 2998
[12] = tested on: HCT-116
[13] = tested on: HCT-15
[14] = tested on: HL-60
[15] = tested on: HOP-62
[16] = tested on: HT-29
[17] = tested on: Hs-578T
[18] = tested on: IGROV-1
[19] = tested on: K562
[20] = tested on: KM12
[21] = tested on: LOX IMVI
[22] = tested on: M14
[23] = tested on: MCF7
[24] = tested on: MDA-MB-231
[25] = tested on: MDA-MB-435
[26] = tested on: MDA-N
[27] = tested on: MOLT-4
[28] = tested on: Malme-3M
[29] = tested on: NCI-H226
[30] = tested on: NCI-H23
[31] = tested on: NCI-H460
[32] = tested on: NCI-H522
[33] = tested on: NCI/ADR-RES
[34] = tested on: OVCAR-3
[35] = tested on: OVCAR-4
[36] = tested on: OVCAR-5
[37] = tested on: OVCAR-8
[38] = tested on: PC-3
[39] = tested on: RPMI-8226
[40] = tested on: RXF 393
[41] = tested on: SF-268
[42] = tested on: SF-295
[43] = tested on: SF-539
[44] = tested on: SK-MEL-28
[45] = tested on: SK-MEL-2
[46] = tested on: SK-MEL-5
[47] = tested on: SK-OV-3
[48] = tested on: SN12C
[49] = tested on: SNB-19
[50] = tested on: SNB-75
[51] = tested on: SR
[52] = tested on: SW-620
[53] = tested on: T47D
[54] = tested on: TK-10
[55] = tested on: U-251
[56] = tested on: UACC-257
[57] = tested on: UACC-62
[58] = tested on: UO-31

## CCCNC(=O)CCC(C)[C@H]1CCC2C3C(C[C@H](OC(C)=O)[C@@]21C)[C@@]1(C)CCC2(C[C@H]1C[C@H]3OC(C)=O)OOC1(CCCCC1)OO2 (stereo partly drawn)
[1]
  GI50: 2310 nM (inactive)
[2]
  GI50: 33700 nM (inactive)
[3]
  GI50: 416 nM (active)
[4]
  GI50: 1240 nM (inactive)
[5]
  GI50: 2550 nM (inactive)
[6]
  GI50: 367 nM (active)
[7]
  GI50: 1730 nM (inactive)
[8]
  GI50: 1750 nM (inactive)
[9]
  GI50: 1850 nM (inactive)
[10]
  GI50: 1580 nM (inactive)
[11]
  GI50: 2700 nM (inactive)
[12]
  GI50: 2930 nM (inactive)
[13]
  GI50: 3680 nM
[14]
  GI50: 1510 nM (inactive)
[15]
  GI50: 261 nM (active)
[16]
  GI50: 3960 nM (inactive)
[17]
  GI50: 7330 nM (inactive)
[18]
  GI50: 478 nM (active)
[19]
  GI50: 4050 nM (inactive)
[20]
  GI50: 1440 nM (inactive)
[21]
  GI50: 1840 nM (inactive)
[22]
  GI50: 5020 nM (inactive)
[23]
  GI50: 3040 nM (inactive)
[24]
  GI50: 1940 nM (inactive)
[25]
  GI50: 2230 nM (inactive)
[26]
  GI50: 3050 nM (inactive)
[27]
  GI50: 1670 nM (inactive)
[28]
  GI50: 2130 nM (inactive)
[29]
  GI50: 3840 nM (inactive)
[30]
  GI50: 1120 nM (inactive)
[31]
  GI50: 1670 nM (inactive)
[32]
  GI50: 473 nM (active)
[33]
  GI50: 2390 nM (inactive)
[34]
  GI50: 1870 nM (inactive)
[35]
  GI50: 1740 nM (inactive)
[36]
  GI50: 2670 nM (inactive)
[37]
  GI50: 1420 nM (inactive)
[38]
  GI50: 1690 nM (inactive)
[39]
  GI50: 923 nM (active)
[40]
  GI50: 3240 nM (inactive)
[41]
  GI50: 2020 nM (inactive)
[42]
  GI50: 3790 nM (inactive)
[43]
  GI50: 3660 nM (inactive)
[44]
  GI50: 55500 nM (inactive)
[45]
  GI50: 2000 nM (inactive)
[46]
  GI50: 2460 nM (inactive)
[47]
  GI50: 24900 nM (inactive)
[48]
  GI50: 3010 nM (inactive)
[49]
  GI50: 7180 nM (inactive)
[50]
  GI50: 1900 nM (inactive)
[51]
  GI50: 1320 nM (inactive)
[52]
  GI50: 4580 nM (inactive)
[53]
  GI50: 2110 nM (inactive)
[54]
  GI50: 1950 nM (inactive)
[55]
  GI50: 1850 nM (inactive)
[56]
  GI50: 5300 nM (inactive)
[57]
  GI50: 2010 nM (inactive)
[58]
  GI50: 89.3 nM (active)
